Assay results as given in PubChem BioAssay (NCI).
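Method: 48-hour compound exposure of cells in 96-well plates, five concentrations, linear interpolation of endpoints. TGI: concentration producing complete growth inhibition.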

How the values were obtained:
Assay in all cases: inhibition of tumour cell growth, NCI panel, 48 h
SF-268 CNS = tested on: SF-268 CNS
SK-MEL-28 melanoma = tested on: SK-MEL-28 melanoma
RXF 393 renal = tested on: RXF 393 renal
M14 melanoma = tested on: M14 melanoma
MDA-MB-435 = tested on: MDA-MB-435
OVCAR-3 ovarian = tested on: OVCAR-3 ovarian
U251 CNS = tested on: U251 CNS
OVCAR-8 ovarian = tested on: OVCAR-8 ovarian
SF-295 CNS = tested on: SF-295 CNS
786-0 renal = tested on: 786-0 renal
HL-60(TB) leukemia = tested on: HL-60(TB) leukemia
K-562 leukemia = tested on: K-562 leukemia
COLO 205 colon = tested on: COLO 205 colon
NCI-H460 lung = tested on: NCI-H460 lung
MCF7 breast = tested on: MCF7 breast
T-47D breast = tested on: T-47D breast
PC-3 prostate = tested on: PC-3 prostate
A498 renal = tested on: A498 renal
SW-620 colon = tested on: SW-620 colon
HCT-116 colon = tested on: HCT-116 colon
MDA-N = tested on: MDA-N
HOP-92 NSCLC = tested on: HOP-92 NSCLC
SK-MEL-5 melanoma = tested on: SK-MEL-5 melanoma
MOLT-4 leukemia = tested on: MOLT-4 leukemia
MALME-3M melanoma = tested on: MALME-3M melanoma
CAKI-1 renal = tested on: CAKI-1 renal
OVCAR-5 ovarian = tested on: OVCAR-5 ovarian
NCI/ADR-RES ovarian = tested on: NCI/ADR-RES ovarian
SK-MEL-2 melanoma = tested on: SK-MEL-2 melanoma
HCC-2998 colon = tested on: HCC-2998 colon
SNB-19 CNS = tested on: SNB-19 CNS
UO-31 renal = tested on: UO-31 renal
LOX IMVI melanoma = tested on: LOX IMVI melanoma
CCRF-CEM leukemia = tested on: CCRF-CEM leukemia
UACC-62 melanoma = tested on: UACC-62 melanoma
OVCAR-4 ovarian = tested on: OVCAR-4 ovarian
MDA-MB-231 breast = tested on: MDA-MB-231 breast
SK-OV-3 ovarian = tested on: SK-OV-3 ovarian
NCI-H226 lung = tested on: NCI-H226 lung
SR leukemia = tested on: SR leukemia
SN12C renal = tested on: SN12C renal
HS 578T breast = tested on: HS 578T breast
DU-145 prostate = tested on: DU-145 prostate
NCI-H522 lung = tested on: NCI-H522 lung
KM12 colon = tested on: KM12 colon
HT29 colon = tested on: HT29 colon
SNB-75 CNS = tested on: SNB-75 CNS
IGROV1 ovarian = tested on: IGROV1 ovarian
NCI-H23 lung = tested on: NCI-H23 lung
HCT-15 colon = tested on: HCT-15 colon
HOP-62 NSCLC = tested on: HOP-62 NSCLC
A549 NSCLC = tested on: A549 NSCLC
UACC-257 melanoma = tested on: UACC-257 melanoma
SF-539 CNS = tested on: SF-539 CNS
ACHN renal = tested on: ACHN renal
TK-10 renal = tested on: TK-10 renal
BT-549 breast = tested on: BT-549 breast
RPMI-8226 leukemia = tested on: RPMI-8226 leukemia
EKVX NSCLC = tested on: EKVX NSCLC

CN=C(NC#N)NCCSCc1nc[nH]c1C was tested, and the TGI (SF-268 CNS) was > 100 µM, the TGI (SK-MEL-28 melanoma) was > 100 µM and the TGI (RXF 393 renal) was > 100 µM. For the same molecule, the TGI (M14 melanoma) was > 100 µM, the TGI (MDA-MB-435) was > 100 µM and the TGI (OVCAR-3 ovarian) was > 100 µM. The TGI (U251 CNS) was > 100 µM, the TGI (OVCAR-8 ovarian) was > 100 µM and the TGI (SF-295 CNS) was > 100 µM. The TGI (786-0 renal) was > 100 µM, the TGI (HL-60(TB) leukemia) was > 100 µM and the TGI (K-562 leukemia) was > 100 µM. The TGI (COLO 205 colon) was > 100 µM, the TGI (NCI-H460 lung) was > 100 µM and the TGI (MCF7 breast) was > 100 µM. The TGI (T-47D breast) was > 100 µM, the TGI (PC-3 prostate) was > 100 µM and the TGI (A498 renal) was > 100 µM. For the same molecule, the TGI (SW-620 colon) was > 100 µM, the TGI (HCT-116 colon) was > 100 µM and the TGI (MDA-N) was > 100 µM. The TGI (HOP-92 NSCLC) was > 100 µM, the TGI (SK-MEL-5 melanoma) was > 100 µM and the TGI (MOLT-4 leukemia) was > 100 µM. For the same molecule, the TGI (MALME-3M melanoma) was > 100 µM, the TGI (CAKI-1 renal) was > 100 µM and the TGI (OVCAR-5 ovarian) was > 100 µM. For the same molecule, the TGI (NCI/ADR-RES ovarian) was > 100 µM, the TGI (SK-MEL-2 melanoma) was > 100 µM and the TGI (HCC-2998 colon) was > 100 µM. The TGI (SNB-19 CNS) was > 100 µM, the TGI (UO-31 renal) was > 100 µM and the TGI (LOX IMVI melanoma) was > 100 µM. The TGI (CCRF-CEM leukemia) was > 100 µM, the TGI (UACC-62 melanoma) was > 100 µM and the TGI (OVCAR-4 ovarian) was > 100 µM. For the same molecule, the TGI (MDA-MB-231 breast) was > 100 µM, the TGI (SK-OV-3 ovarian) was > 100 µM and the TGI (NCI-H226 lung) was > 100 µM. The TGI (SR leukemia) was > 100 µM, the TGI (SN12C renal) was > 100 µM and the TGI (HS 578T breast) was > 100 µM. For the same molecule, the TGI (DU-145 prostate) was > 100 µM, the TGI (NCI-H522 lung) was > 100 µM and the TGI (KM12 colon) was > 100 µM. The TGI (HT29 colon) was > 100 µM, the TGI (SNB-75 CNS) was 79.3 µM and the TGI (IGROV1 ovarian) was > 100 µM. The TGI (NCI-H23 lung) was > 100 µM, the TGI (HCT-15 colon) was > 100 µM and the TGI (HOP-62 NSCLC) was > 100 µM. The TGI (A549 NSCLC) was > 100 µM, the TGI (UACC-257 melanoma) was > 100 µM and the TGI (SF-539 CNS) was > 100 µM. For the same molecule, the TGI (ACHN renal) was > 100 µM.

In the case of CO/N=C(/C(=O)N(C(=O)/C(=N/OC)c1csc(NC(c2ccccc2)(c2ccccc2)c2ccccc2)n1)n1cnn(CC(=O)OC(C)(C)C)c1=O)c1csc(NC(c2ccccc2)(c2ccccc2)c2ccccc2)n1, the TGI (SF-268 CNS) is reported as > 10 µM, the TGI (SK-MEL-28 melanoma) is reported as > 10 µM and the TGI (RXF 393 renal) is reported as > 10 µM. The TGI (M14 melanoma) was > 10 µM, the TGI (MDA-MB-435) was > 10 µM and the TGI (OVCAR-3 ovarian) was > 10 µM. The TGI (TK-10 renal) was > 10 µM, the TGI (U251 CNS) was > 10 µM and the TGI (OVCAR-8 ovarian) was > 10 µM. The TGI (SF-295 CNS) was > 10 µM, the TGI (786-0 renal) was > 10 µM and the TGI (HL-60(TB) leukemia) was > 10 µM. The TGI (K-562 leukemia) was > 10 µM, the TGI (COLO 205 colon) was > 10 µM and the TGI (NCI-H460 lung) was > 10 µM. For the same molecule, the TGI (MCF7 breast) was > 10 µM, the TGI (T-47D breast) was > 10 µM and the TGI (PC-3 prostate) was 3.44 µM. The TGI (A498 renal) was > 10 µM, the TGI (SW-620 colon) was > 10 µM and the TGI (HCT-116 colon) was > 10 µM. The TGI (MDA-N) was > 10 µM, the TGI (SK-MEL-5 melanoma) was > 10 µM and the TGI (MOLT-4 leukemia) was > 10 µM. The TGI (MALME-3M melanoma) was > 10 µM, the TGI (CAKI-1 renal) was > 10 µM and the TGI (OVCAR-5 ovarian) was > 10 µM. For the same molecule, the TGI (NCI/ADR-RES ovarian) was > 10 µM, the TGI (SK-MEL-2 melanoma) was 3.92 µM and the TGI (HCC-2998 colon) was > 10 µM. For the same molecule, the TGI (SNB-19 CNS) was > 10 µM, the TGI (UO-31 renal) was > 10 µM and the TGI (BT-549 breast) was 3.96 µM. For the same molecule, the TGI (LOX IMVI melanoma) was > 10 µM, the TGI (CCRF-CEM leukemia) was > 10 µM and the TGI (UACC-62 melanoma) was > 10 µM. The TGI (OVCAR-4 ovarian) was > 10 µM, the TGI (MDA-MB-231 breast) was > 10 µM and the TGI (SK-OV-3 ovarian) was > 10 µM. For the same molecule, the TGI (NCI-H226 lung) was > 10 µM, the TGI (SN12C renal) was > 10 µM and the TGI (RPMI-8226 leukemia) was > 10 µM. The TGI (HS 578T breast) was > 10 µM, the TGI (DU-145 prostate) was > 10 µM and the TGI (EKVX NSCLC) was > 10 µM. For the same molecule, the TGI (NCI-H522 lung) was > 10 µM, the TGI (KM12 colon) was > 10 µM and the TGI (HT29 colon) was > 10 µM. The TGI (SNB-75 CNS) was > 10 µM, the TGI (IGROV1 ovarian) was > 10 µM and the TGI (NCI-H23 lung) was > 10 µM. The TGI (HCT-15 colon) was > 10 µM, the TGI (HOP-62 NSCLC) was > 10 µM and the TGI (A549 NSCLC) was > 10 µM. The TGI (UACC-257 melanoma) was > 10 µM, the TGI (SF-539 CNS) was > 10 µM and the TGI (ACHN renal) was > 10 µM.
